Data reported in patent US9139581B2 (PORTOLA PHARMACEUTICALS, INC., priority 2008, dated 2015).

Key:
Purified human JAK3 = target: T1, Purified human JAK3 (Homo sapiens, UniProt P52333); test: Millipore Upstate KinaseProfiler screening, JAK3 catalytic activity; assay type: biochemical; conditions: for inhibition at 0.3 µM: 0.3 μM compound; for IC50: Table 5, read-out: Inhibition (IC50%) of catalytic activity of JAK 3
T1 construct: purchased Millipore Upstate KinaseProfiler; host or cells: insect cells
T1 sequence (P52333 781-1124 limits assumed): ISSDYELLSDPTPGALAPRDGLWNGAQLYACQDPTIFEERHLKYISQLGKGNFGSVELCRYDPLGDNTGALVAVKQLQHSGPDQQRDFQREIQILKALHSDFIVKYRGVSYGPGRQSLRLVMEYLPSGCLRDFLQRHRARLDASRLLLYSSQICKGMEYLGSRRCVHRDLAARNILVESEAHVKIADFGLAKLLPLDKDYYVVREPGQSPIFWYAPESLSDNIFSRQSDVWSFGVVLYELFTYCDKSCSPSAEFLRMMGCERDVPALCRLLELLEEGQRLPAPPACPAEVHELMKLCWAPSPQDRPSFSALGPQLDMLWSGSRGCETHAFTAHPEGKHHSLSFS
Method: This assay is a direct measurement of the effect of compound on the catalytic activity of JAK3. Purified human JAK3 (GenBank AF513860) sequence (residue 781-C terminus) was obtained from insect cells. The catalytic hydrolysis of ATP is measured using a radiometric filter binding method. Incubation of kinase with ^33-[P]ATP and substrate leads to incorporation of ^33[P] into the substrate which can then be separated from the other reaction components by filtration. Assays were performed using 10 μM ATP and in the absence or presence of 1, 0.3, or 0.1 μM compound. Activity was expressed as % of inhibition of control.
In the table below, activity in the Jak assays is provided as follows: +++++=IC50<0.0010 μM; ++++=0.0010 μM<IC50<0.010 μM, +++=0.010 μM<IC50<0.10 μM, ++=0.10 μM<IC50<1 μM, +=IC50>1 μM.

[1] = test system: Toledo and Karpas-422 cell lines; conditions: Chen, Monti et al. 2008; cited from earlier work
[2] = test system: SUDHL-4 and SUDHL-6 cells; conditions: Chen, Monti et al. 2008; cited from earlier work
JAK2 = target: T2, JAK2 (Homo sapiens, UniProt O60674); test: Millipore Upstate KinaseProfiler screening, JAK2 catalytic activity; assay type: biochemical; conditions: Table 5; read-out: Inhibition (IC50%) of catalytic activity of JAK 2
T2 construct: purchased Millipore Upstate KinaseProfiler
T2 sequence (O60674 whole entry): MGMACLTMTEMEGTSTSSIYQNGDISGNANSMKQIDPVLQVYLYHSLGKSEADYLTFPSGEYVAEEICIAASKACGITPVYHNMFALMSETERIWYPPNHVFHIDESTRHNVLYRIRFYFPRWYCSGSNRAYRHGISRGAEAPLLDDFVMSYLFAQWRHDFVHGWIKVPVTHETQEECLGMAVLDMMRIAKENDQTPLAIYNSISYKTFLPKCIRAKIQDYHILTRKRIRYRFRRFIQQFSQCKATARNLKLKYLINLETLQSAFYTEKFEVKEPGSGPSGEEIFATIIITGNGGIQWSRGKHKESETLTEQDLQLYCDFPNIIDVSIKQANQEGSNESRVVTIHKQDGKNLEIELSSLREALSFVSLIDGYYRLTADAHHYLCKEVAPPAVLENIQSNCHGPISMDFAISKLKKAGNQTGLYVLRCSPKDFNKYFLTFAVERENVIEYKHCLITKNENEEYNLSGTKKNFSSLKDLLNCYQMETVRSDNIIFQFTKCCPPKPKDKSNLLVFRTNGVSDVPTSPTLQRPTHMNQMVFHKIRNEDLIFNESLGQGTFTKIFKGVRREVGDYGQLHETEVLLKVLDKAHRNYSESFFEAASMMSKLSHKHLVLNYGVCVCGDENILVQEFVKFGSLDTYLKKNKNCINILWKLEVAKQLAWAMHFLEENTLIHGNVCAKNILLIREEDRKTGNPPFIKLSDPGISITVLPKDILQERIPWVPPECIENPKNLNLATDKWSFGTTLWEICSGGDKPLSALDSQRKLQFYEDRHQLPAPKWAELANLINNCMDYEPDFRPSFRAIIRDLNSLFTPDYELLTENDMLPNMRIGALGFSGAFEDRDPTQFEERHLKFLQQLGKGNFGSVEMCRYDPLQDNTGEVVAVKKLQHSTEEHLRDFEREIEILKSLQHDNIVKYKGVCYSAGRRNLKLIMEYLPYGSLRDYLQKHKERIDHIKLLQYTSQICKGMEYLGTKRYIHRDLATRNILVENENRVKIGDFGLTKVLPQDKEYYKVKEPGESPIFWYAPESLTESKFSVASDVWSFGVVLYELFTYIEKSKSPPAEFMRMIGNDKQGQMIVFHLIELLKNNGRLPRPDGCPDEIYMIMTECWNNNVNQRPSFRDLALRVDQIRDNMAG

JAK1 = target: T3, JAK1 (Homo sapiens, UniProt P23458); test: Millipore Upstate KinaseProfiler screening, JAK1 catalytic activity; assay type: biochemical; conditions: Table 5; read-out: Inhibition (IC50%) of catalytic activity of JAK 1
T3 construct: purchased Millipore Upstate KinaseProfiler
T3 sequence (P23458 whole entry): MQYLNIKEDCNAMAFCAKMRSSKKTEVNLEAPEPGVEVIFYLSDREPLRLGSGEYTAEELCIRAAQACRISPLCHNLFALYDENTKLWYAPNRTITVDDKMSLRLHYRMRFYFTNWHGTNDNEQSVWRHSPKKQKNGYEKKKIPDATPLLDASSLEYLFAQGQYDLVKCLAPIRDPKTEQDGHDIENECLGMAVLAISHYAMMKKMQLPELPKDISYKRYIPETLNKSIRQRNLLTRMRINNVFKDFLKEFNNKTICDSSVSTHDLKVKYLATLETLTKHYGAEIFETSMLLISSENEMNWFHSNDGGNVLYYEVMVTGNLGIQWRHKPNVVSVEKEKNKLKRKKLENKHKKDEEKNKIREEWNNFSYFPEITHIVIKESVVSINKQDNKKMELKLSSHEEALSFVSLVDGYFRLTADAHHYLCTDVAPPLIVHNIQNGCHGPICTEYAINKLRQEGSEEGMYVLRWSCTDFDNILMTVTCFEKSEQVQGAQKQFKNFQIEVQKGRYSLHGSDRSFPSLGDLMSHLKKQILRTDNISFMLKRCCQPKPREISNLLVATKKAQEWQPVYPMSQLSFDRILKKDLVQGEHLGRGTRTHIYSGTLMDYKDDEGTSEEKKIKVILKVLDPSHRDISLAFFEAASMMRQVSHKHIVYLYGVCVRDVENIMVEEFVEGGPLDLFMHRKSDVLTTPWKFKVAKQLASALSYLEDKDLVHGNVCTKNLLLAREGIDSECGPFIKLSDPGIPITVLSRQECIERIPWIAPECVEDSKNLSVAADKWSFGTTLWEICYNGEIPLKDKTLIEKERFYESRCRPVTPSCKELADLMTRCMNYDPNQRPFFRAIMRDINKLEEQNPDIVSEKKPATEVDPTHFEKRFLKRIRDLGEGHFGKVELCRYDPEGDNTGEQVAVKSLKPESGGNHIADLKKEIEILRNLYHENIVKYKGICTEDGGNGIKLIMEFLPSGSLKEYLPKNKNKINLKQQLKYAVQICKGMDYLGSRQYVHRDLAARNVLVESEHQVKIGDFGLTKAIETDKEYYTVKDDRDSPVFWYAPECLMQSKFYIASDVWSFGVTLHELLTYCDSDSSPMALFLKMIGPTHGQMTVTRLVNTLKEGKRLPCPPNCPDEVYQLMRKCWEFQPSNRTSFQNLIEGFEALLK

SUDHL-6 and Toledo cells = test: Caspase 3 apoptosis assay; assay type: cell-based, human; conditions: 1 μM, 72 h treatment
Method: Induction of apoptosis in non-Hodgkin's lymphoma B cell lines SUDHL-4, SUDHL-6, and Toledo was assessed by measuring the apoptotis marker Caspase 3. Cells were incubated with 1, 3, or 10 μM compound for 24, 48, and 72 hours. At the conclusion of each time point, cells were processed for flow cytometry analysis using the Monoclonal Rabbit Anti-Active Caspase-3 Antibody Kit and related protocols (BD Pharmingen). Data from two independent experiments are presented in Tables 5A and 5B, representing the percent of total cells undergoing apoptosis following incubation with compounds under the indicated conditions.
Induction of apoptosis was measured using the PE-conjugated monoclonal active caspase-3 antibody apoptosis kit (Becton Dickenson) following the supplied protocol. Cells were suspended in growth media (0.5×10^6 cells/ml) and treated with the indicated concentrations of each Syk inhibitor or vehicle control for 24, 48, or 72 hours prior to FACS analysis. The MTT (3-(4,5-Dimethylthiazol-2-yl)-2,5-diphenyltetrazolium bromide, a tetrazole) assay […] was used as a measure of cell viability and growth, following protocols supplied by the manufacturer. Cells were treated with the indicated concentrations of each Syk inhibitor or vehicle control for 72 hours.
Selective inhibition of Syk was sufficient to induce apoptosis in “BCR-type” NHL cell lines.

| SMILES | IC50 (JAK2) [nM] | IC50 (Purified human JAK3) [nM] | IC50 (JAK1) [nM] | other results |
| --- | --- | --- | --- | --- |
| CN(C)C(=O)C1CCN(c2ccc(Nc3nc(NC4CC4)c4cc[nH]c4n3)cc2)CC1 | – | – | – | inhibition at 0.3 µM (Purified human JAK3; 10 μM ATP): 82% |
| COc1cc(Nc2ncc(F)c(Nc3ccc4c(n3)NC(=O)C(C)(C)O4)n2)cc(OC)c1OC [Example R406] | – | – | – | Sensitivity to R406 [1]: insensitive; Sensitivity to Syk inhibition by R406 [2]: sensitive |
| CC(=O)c1c[nH]c2nc(Nc3ccc4cn[nH]c4c3)nc(NC3CC3)c12 [drawing 207] | > 1000 | > 1000 | > 1000 | – |
| N#Cc1c[nH]c2nc(Nc3ccc4c(c3)CCC(=O)N4)nc(NC3CC3)c12 [drawing 209] | 10 to 100 | 10 to 100 | 10 to 100 | – |
| CS(=O)(=O)N1CCN(c2ccc(Nc3nc(Nc4cccc(S(N)(=O)=O)c4)c4cc[nH]c4n3)cc2)CC1 | 100 to 1000 | 100 to 1000 | > 1000 | – |
| N#CCC(=O)N1CCCC(Nc2nc(Nc3ccc(C(N)=O)cc3)nc3[nH]ccc23)C1 (stereo not drawn) [drawing 212] | 10 to 100 | 10 to 100 | 10 to 100 | – |
| c1cc2c(NC3CC3)nc(Nc3ccc4cn[nH]c4c3)nc2[nH]1 [drawing 204] | 100 to 1000 | 100 to 1000 | 100 to 1000 | – |
| N#Cc1c[nH]c2nc(Nc3ccc(S(N)(=O)=O)cc3)nc(NC3CC3)c12 [drawing 210] | 10 to 100 | 10 to 100 | 10 to 100 | – |
| CC(=O)N1CCN(c2ccc(Nc3nc(N4CCC(CN)CC4)c4cc[nH]c4n3)cc2)CC1 [drawing 208] | 100 to 1000 | 100 to 1000 | 100 to 1000 | – |
| CCCCCCCCCCCCCC(=O)O[C@@H]1[C@@H](C)[C@@]2(O)[C@@H](C=C(CO)C[C@]3(O)C(=O)C(C)=C[C@@H]23)[C@@H]2C(C)(C)[C@]12OC(C)=O [PMA] | – | – | – | Induction of apoptosis (SUDHL-6 and Toledo cells): equally sensitive to induction of apoptosis |
| NC(=O)c1c[nH]c2nc(Nc3ccc4c(c3)CCC(=O)N4)nc(NC3CC3)c12 [drawing 211] | 100 to 1000 | > 1000 | > 1000 | – |
| c1cc2c(NC3CC3)nc(Nc3ccc4cn[nH]c4c3)nc2[nH]1 [drawing 213] | – | – | – | inhibition at 0.3 µM (Purified human JAK3; 10 μM ATP): 41%; inhibition at 1 µM (Purified human JAK3; 1 μM compound, 10 μM ATP): 77% |
| Cc1c[nH]c2nc(Nc3ccc4cn[nH]c4c3)nc(NC3CCC3)c12 | 100 to 1000 | 100 to 1000 | > 1000 | – |
